We go through 27 compounds from patent US10947213B1 (Merck Patent GmbH, priority 2015, dated 2021).

Structures can show the parent of a compound that is named as a salt.

This assay addresses T1, TLR7/NFKb HEK cells (Homo sapiens, UniProt Q9NYK1).
T1 construct: expressed in transfected cells; host or cells: HEK cells (TLR7/NFKb reporter line)
T1 sequence (Q9NYK1 27-1049): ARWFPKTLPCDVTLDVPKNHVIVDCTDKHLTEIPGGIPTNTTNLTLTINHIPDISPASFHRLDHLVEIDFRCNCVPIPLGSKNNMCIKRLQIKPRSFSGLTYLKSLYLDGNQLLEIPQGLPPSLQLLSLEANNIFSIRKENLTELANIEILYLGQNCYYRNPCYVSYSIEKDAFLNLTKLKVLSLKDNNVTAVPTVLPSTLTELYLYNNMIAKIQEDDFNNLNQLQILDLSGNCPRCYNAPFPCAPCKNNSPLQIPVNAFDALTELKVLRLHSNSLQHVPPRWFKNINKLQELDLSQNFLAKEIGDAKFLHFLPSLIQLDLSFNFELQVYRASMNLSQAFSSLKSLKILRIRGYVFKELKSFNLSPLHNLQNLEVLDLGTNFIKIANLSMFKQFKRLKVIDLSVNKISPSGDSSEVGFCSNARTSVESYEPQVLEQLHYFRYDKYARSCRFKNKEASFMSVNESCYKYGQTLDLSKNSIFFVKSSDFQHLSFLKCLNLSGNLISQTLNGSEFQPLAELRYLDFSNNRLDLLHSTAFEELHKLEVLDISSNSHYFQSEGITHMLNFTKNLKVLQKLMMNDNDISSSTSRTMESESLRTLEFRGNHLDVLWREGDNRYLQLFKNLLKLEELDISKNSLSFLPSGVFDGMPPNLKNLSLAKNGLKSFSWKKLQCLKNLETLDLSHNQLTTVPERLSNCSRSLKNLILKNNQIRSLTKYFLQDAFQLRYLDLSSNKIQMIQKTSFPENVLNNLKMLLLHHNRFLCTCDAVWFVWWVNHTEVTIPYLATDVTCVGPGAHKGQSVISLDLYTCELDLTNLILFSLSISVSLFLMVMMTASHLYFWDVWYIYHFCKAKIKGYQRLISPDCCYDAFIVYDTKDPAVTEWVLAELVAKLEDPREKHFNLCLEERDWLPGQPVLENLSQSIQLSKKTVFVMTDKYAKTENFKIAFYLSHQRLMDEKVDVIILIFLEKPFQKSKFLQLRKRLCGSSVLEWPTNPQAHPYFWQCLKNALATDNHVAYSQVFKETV
Kind of assay: HEK Cell Assay (TLR7/NFKb reporter, Steady-Glo luciferase readout). It counts as cell-based. Conditions: 30 min compound preincubation, then R*48 agonist for 5 hours, read-out: Potency. The method, boiled down:
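Steady-Glo luminescence after 5 h stimulation with R*48 agonist, following 30 min compound preincubation. Assay run in HEK cells carrying a TLR7/NFKb luciferase reporter, plated at 5000 cells/well and grown 24 h at 37° C (10% CO2) before treatment.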

For `C[C@H]1C[C@@H](NC(=O)COC(C)(C)C)CN(c2ccnc3nccnc23)C1` [Compound 164, 2-(tert-butoxy)-N-[(3R,5S)-5-methyl-1-[pyrido[2,3-b]pyrazin-8-yl]piperidin-3-yl]acetamide], the IC50 was > 10 µM. For `C[C@H]1C[C@@H](NC(=O)CN2CCC(F)(F)CC2)CN(c2ccc(C#N)c3nccnc23)C1` [Compound 348, N-[(3R,5S)-1-(8-cyanoquinoxalin-5-yl)-5-methylpiperidin-3-yl]-2-(4,4-difluoropiperidin-1-yl)acetamide] the value was < 1 µM.

`CC(C(=O)N[C@@H]1C[C@H](C)CN(c2ccc(C(F)(F)F)c3nccnc23)C1)N1CC(F)(F)C1` (stereo partly drawn) [Compound 299, 2-(3,3-difluoroazetidin-1-yl)-N-[(3R,5S)-5-methyl-1-[8-(trifluoromethyl)quinoxalin-5-yl]piperidin-3-yl]propanamide]: the IC50 is 1 to 10 µM. The figure for `Cc1ncc(N2C[C@@H](C)C[C@@H](NC(=O)CC3CN(C(=O)OC(C)(C)C)C3)C2)c2cccnc12` [Compound 557, 3-{[(3R,5S)-5-Methyl-1-(8-methyl-[1,7]naphthyridin-5-yl)-piperidin-3-ylcarbamoyl]-methyl}-azetidine-1-carboxylic Acid tert-butyl ester] is 1 to 10 µM; for `C[C@H]1C[C@@H](NC(=O)C2(C)COC2)CN(c2ccnc3nccnc23)C1` [Compound 37, 3-methyl-N-((3R,5S)-5-methyl-1-(pyrido[2,3-b]pyrazin-8-yl)piperidin-3-yl)oxetane-3-carboxamide] it is > 10 µM; for `C[C@H]1C[C@@H](NC(=O)C2(N)COC2)CN(c2ccc(C#N)c3nccnc23)C1` [Compound 129, 3-amino-N-[(3R,5S)-1-(8-cyanoquinoxalin-5-yl)-5-methylpiperidin-3-yl]oxetane-3-carboxamide] it is 1 to 10 µM. For `C[C@H]1C[C@@H](NC(=O)CN(C)C)CN(c2ccc(C(N)=O)c3ncccc23)C1` [Compound 186, 5-[(3R,5S)-3-[2-(dimethylamino)acetamido]-5-methylpiperidin-1-yl]quinoline-8-carboxamide] the value was > 10 µM; for `C[C@@H]1C[C@H](CN2CCC(N3CCOCC3)CC2)CN(c2ccc(C(F)(F)F)c3ncccc23)C1` (relative stereo) [Compound 535, cis-5-[3-Methyl-5-(4-morpholin-4-yl-piperidin-1-ylmethyl)-piperidin-1-yl]-8-trifluoromethyl-quinoline], < 1 µM; for `CC(C(=O)N[C@@H]1C[C@H](C)CN(c2ccc(C(F)F)c3ncccc23)C1)N1CC(F)(F)C1` (stereo partly drawn) [Compound 311, 2-(3,3-difluoroazetidin-1-yl)-N-[(3R,5S)-1-[8-(difluoromethyl)quinolin-5-yl]-5-methylpiperidin-3-yl]propanamide], 1 to 10 µM.

For `CN1CCCC1CNC(=O)C1CCN(c2ccc(C(F)(F)F)c3ncccc23)CC1` (stereo not drawn) [Compound 442, 1-(8-Trifluoromethyl-quinolin-5-yl)-piperidine-4-carboxylic acid (1-methyl-pyrrolidin-2-ylmethyl)-amide], the IC50 was < 1 µM. The figure for `C[C@H]1C[C@@H](NC(=O)Cn2cccn2)CN(c2ccnc3nccnc23)C1` [Compound 170, N-[(3R,5S)-5-methyl-1-[pyrido[2,3-b]pyrazin-8-yl]piperidin-3-yl]-2-(1H-pyrazol-1-yl)acetamidw] is > 10 µM. For the compound `CCN(CC)C1CCN(C(=O)C2CCN(c3ccnc4nccnc34)CC2)CC1` [Compound 2, (4-(diethylamino)piperidin-1-yl)(1-(pyrido[2,3-b]pyrazin-8-yl)piperidin-4-yl)methanone], the IC50 was 1 to 10 µM. For `CCN(CC)CCNC(=O)C1CCN(c2ncc(F)c3nccnc23)CC1` [Compound 456, 1-(8-Fluoro-pyrido[3,4-b]pyrazin-5-yl)-piperidine-4-carboxylic Acid (2-diethylamino-ethyl)-amide] the value was > 10 µM; for `C[C@H]1C[C@@H](N)CN(c2ncc(C#N)c3ncncc23)C1` [Compound 458, 5-((3R,5S)-3-Amino-5-methyl-piperidin-1-yl)-pyrido[4,3-d]pyrimidine-8-carbonitrile hydrochloride], > 10 µM. On to `C[C@H]1C[C@@H](NC(=O)CN2CCOCC2)CN(c2ccc(C(F)(F)F)c3ncccc23)C1` [Compound 239, N-[(3R,5S)-5-methyl-1-[8-(trifluoromethyl)quinolin-5-yl]piperidin-3-yl]-2-(morpholin-4-yl)acetamide], for which the IC50 is < 1 µM.

In the case of `CCC(C)C(=O)N[C@@H]1C[C@H](C)CN(c2ccc(C#N)c3nccnc23)C1` (single isomer, unassigned) [Compound 155], the IC50 is 1 to 10 µM. For `C[C@H]1C[C@@H](NC(=O)C(N)C(F)(F)F)CN(c2ccc(C#N)c3nccnc23)C1` (single isomer, unassigned) [Compound 112, hydrochloride] the value was 1 to 10 µM; for `C[C@H]1C[C@@H](NC(=O)CC(O)C(C)(C)C)CN(c2ccnc3nccnc23)C1` (single isomer, unassigned) [Compound 149], > 10 µM. On to `O=C(CN1CCCCC1)NCC1CCN(c2ccc(C(F)(F)F)c3ncccc23)CC1` [Compound 448, 2-Piperidin-1-yl-N-[1-(8-trifluoromethyl-quinolin-5-yl)-piperidin-4-ylmethyl]-acetamide], for which the IC50 was 1 to 10 µM. Take `CCN(CC)CCNC(=O)C1CCN(c2ccnc3ncccc23)CC1` [Compound 1, N-(2-(diethylamino)ethyl)-1-(1,8-naphthyridin-4-yl)piperidine-4-carboxamide]: the IC50 was > 10 µM.

As for `C[C@H]1C[C@@H](NC2CCN(C)C2=O)CN(c2ccc(C(F)(F)F)c3nccnc23)C1` (single isomer, unassigned) [Compound 352], the IC50 is < 1 µM. `CC(C)(C)CC(=O)N[C@H]1C[C@@H](C2CC2)CN(c2ccc(C#N)c3nccnc23)C1` (relative stereo) [Compound 175, cis-N-[1-(8-cyanoquinoxalin-5-yl)-5-cyclopropylpiperidin-3-yl]-3,3-dimethylbutanamide]: the IC50 lay in the range of 1 to 10 µM. Turning to `CCN(CC)CCNCC1CCN(c2ccnc3ccc(OC)cc23)CC1` [Compound 382, N,N-Diethyl-N′-[1-(6-methoxy-quinolin-4-yl)-piperidin-4-ylmethyl]-ethane-1,2-diamine], the IC50 lay in the range of 1 to 10 µM.

In the case of `N#Cc1ccc(N2C[C@@H](NC(=O)CN3CCOCC3)C[C@@H](C(F)(F)F)C2)c2nccnc12` (relative stereo) [Compound 228, cis-N-[1-(8-cyanoquinoxalin-5-yl)-5-(trifluoromethyl)piperidin-3-yl]-2-(morpholin-4-yl)acetamide], the IC50 was in the range of 1 to 10 µM. Take `CC1(C)C[C@@H](NC(=O)C(N)C(F)(F)F)CN(c2ccc(C#N)c3nccnc23)C1` (single isomer, unassigned) [Compound 212]: the IC50 lay in the range of 1 to 10 µM. Consider `O=C(CN1CCC1)NCC1CCN(c2ccnc3nccnc23)CC1` [Compound 402, 2-Azetidin-1-yl-N-(1-pyrido[2,3-b]pyrazin-8-yl-piperidin-4-ylmethyl)-acetamide], for which the IC50 fell in the range of 1 to 10 µM. The figure for `C[C@H]1C[C@@H](NC(=O)CC2CN(C)C2)CN(c2ccc(C(F)F)c3ncccc23)C1` [Compound 364, N-[(3R,5S)-1-[8-(difluoromethyl)quinolin-5-yl]-5-methylpiperidin-3-yl]-2-(1-methylazetidin-3-yl)acetamide] is < 1 µM.
